The text below walks through data of patent US20240156790A1, “COMPOUNDS, COMPOSITIONS, AND METHODS FOR MODULATING FERROPTOSIS AND TREATING EXCITOTOXIC DISORDERS” (THE TRUSTEES OF COLUMBIA UNIVERSITY IN THE CITY OF NEW YORK, priority 2018, published 2024).

As a reminder, the EC50 is the midpoint of the concentration-response curve. As usually defined, the IC50 is the concentration that inhibits the measured activity by half.

Entries after “also recorded” stand apart in the source; their conditions may differ. Where two headings read alike, the source gives them in different places.

The subject of test [1] is HT-1080 cells. Put plainly: Rescue activity of Fer-1 analogs: inhibition of erastin-, IKE- or RSL3-induced death (Alamar Blue viability). It counts as cell-based. As to conditions: Homo sapiens. On the procedure: HT-1080 cells are cultured in DMEM containing 10% fetal bovine serum, 1% supplemented non-essential amino acids and 1% pen/strep mixture (Gibco) and maintained in a humidified environment at 37° C. with 5% CO2 in a tissue culture incubator. 1,000 HT-1080 cells are seeded per well in duplicate 384-well plates (Corning) using a BioMek FX liquid handling robot (Beckman Coulter). The next day, the medium is replaced with 36 μL of medium containing 10 μM erastin with 4 μL of medium containing a dilution series (previously prepared) of DMSO, Fer-1 (positive control) or Fer-1 analogs. […] Cells are incubated a further 6 hours and then the Alamar Blue fluorescence intensity recorded using a Victor 3 platereader (PerkinElmer)(ex/em 530/590). All experiments are performed at least twice and the background (no cells)-subtracted Alamar Blue values for each combination are averaged between replicates. The same procedure was repeated by replacing erastin (10 μM) with IKE (3 μM) or RSL3 (0.2 μM).

Test [2] deals with N27 rat dopaminergic cells. Put plainly: Suppression of ferroptosis induced by RSL3 in N27 cells (CellTiter-Glo viability). It counts as cell-based. As to conditions: for IC50: Rattus norvegicus, read-out: IC50; for ability to suppress ferroptosis, in words: RSL3 20 nM, 24 hours of incubation.
[3] abbreviates: HT-1080, ^a 50% viability, HT-1080 cells treated with 10 μM erastin.
[4] abbreviates: HT-1080, ^b 50% viability, HT-1080 treated with 3 μM IKE.
[5] abbreviates: HT-1080, ^c 50% viability, HT-1080 treated with 0.2 μM RSL3.
The mark [6] stands for this setting: N27, 24 h, Table 13, 20 nM RSL3, treated for 24 hours^d.
The mark [7] stands for this setting: N27, 48 h, Table 13, 20 nM RSL3, treated for 48 hours^e.
Setting [8] is: N27, 24 h, Table 3, ^d 24 hr treatment, 1,000 cells/well seeded.

`CC(C)(C)OC(=O)c1cnc(NC2CCCCC2)c(NC2CCCCC2)c1` [CFI-101]: the figures for the EC50 in test [1] (setting [3]), in test [1] (setting [4]) and in test [1] (setting [5]) were 354 nM, 171 nM and 163 nM, respectively.

As for `C=C/C(=C\C(F)=C\COC(C)(C)C)NC12CC3CC(CC(C3)C1)C2` [CFI-A78], the concentration giving a half-maximal response (EC50) turned out to be 26 nM in test [1] (setting [4]) and 18 nM in test [1] (setting [5]).

As for `Cc1noc(-c2ccc(NC3CCCCC3)c(NC3CCCC3)c2)n1` [TH-1-45-1, N1-cyclohexyl-N2-cyclopentyl-4-(3-methyl-1,2,4-oxadiazol-5-yl)benzene-1,2-diamine], the EC50 in test [1] (setting [3]) turned out to be 33.8 nM; in test [1] (setting [4]), 17.3 nM; in test [1] (setting [5]), 5.1 nM.

For `Cc1noc(-c2ccc(NC3CCCCC3)c(NC(C)C)c2)n1` [TH-1-45-2, N1-cyclohexyl-N2-isopropyl-4-(3-methyl-1,2,4-oxadiazol-5-yl)benzene-1,2-diamine], the EC50 in test [1] (setting [3]) came out at 22.3 nM; in test [1] (setting [4]), 16.2 nM; in test [1] (setting [5]), 4.2 nM.

For `CCC(CC)Nc1cc(-c2nc(C)no2)ccc1NC1CCCCC1` [TH-1-45-3, N1-cyclohexyl-4-(3-methyl-1,2,4-oxadiazol-5-yl)-N2-(pentan-3-yl)benzene-1,2-diamine], the figures for the EC50 in test [1] (setting [3]), in test [1] (setting [4]) and in test [1] (setting [5]) were 37.8 nM, 26.9 nM and 6.6 nM, respectively.

With `Cc1noc(-c2ccc(NC3CCCCC3)c(NCc3ccccc3)c2)n1` [TH-1-53-2], the values for the EC50 in test [1] (setting [3]), in test [1] (setting [4]) and in test [1] (setting [5]) were 44.5 nM, 40.2 nM and 9.4 nM, respectively.

For the compound `Cc1noc(-c2ccc(NC3CCCCC3)c(NCc3ccncc3)c2)n1` [TH-1-53-3, N1-cyclohexyl-4-(3-methyl-1,2,4-oxadiazol-5-yl)-N2-(pyridin-4-ylmethyl)benzene-1,2-diamine], the EC50 in test [1] (setting [3]) came out at 63.8 nM; in test [1] (setting [4]) it was 63 nM; in test [1] (setting [5]), 31.5 nM.

Turning to `COc1ccc(N)c(NC(C)C)n1` [TH-3-83-2, N2-isopropyl-6-methoxypyridine-2,3-diamine], the values for the IC50 in test [2] (setting [6]) and in test [2] (setting [7]) were 19.5 nM and 33.6 nM, respectively.

Take `Cc1noc(-c2cc(N(C(C)C)C(C)C)cnc2NC2CCCCC2)n1` [TH-3-86-R2, N^2-cyclohexyl-N^5,N^5-diisopropyl-3-(3-methyl-1,2,4-oxadiazol-5-yl)pyridine-2,5-diamine]: the IC50 in test [2] (setting [7]) stood at 1040 nM; in test [2] (N27, text, 20 nM RSL3), 1000 nM.

As for `COc1ccc(NC2CCCCC2)c(NC(C)C)n1` [TH-3-95-1-r1, N3-cyclohexyl-N2-isopropyl-6-methoxypyridine-2,3-diamine], the values for the IC50 in test [2] (setting [6]) and in test [2] (setting [7]) were 30.5 nM and 22.4 nM, respectively.

As to `COc1ccc(NC(C)C)c(NC(C)C)n1` [TH-3-95-2-R1, N2,N3-diisopropyl-6-methoxypyridine-2,3-diamine], the results for the IC50 in test [2] (setting [6]) and in test [2] (setting [7]) were 35.7 nM and 0.22 nM, respectively.

As for `Cc1noc(-c2cnc(NC3CCCCC3)c(NC3CCCC3)c2)n1` [TH-4-16-1, N^2-cyclohexyl-N^3-cyclopentyl-5-(3-methyl-1,2,4-oxadiazol-5-yl)pyridine-2,3-diamine], the IC50 turned out to be 5.1 nM in test [2] (setting [8]); 5.1 nM in test [2] (setting [6]); 8.2 nM in test [2] (N27, 48 h, Table 3, ^e 48 hr treatment, 1,000 cells/well seeded); 8.2 nM in test [2] (setting [7]).

Turning to `CCN(CC)c1ncc(-c2nc(C)no2)cc1[N+](=O)[O-]` [TH-4-46-2, N,N-diethyl-5-(3-methyl-1,2,4-oxadiazol-5-yl)-3-nitropyridin-2-amine], the “ability to suppress ferroptosis, in words” value (from here on “ability”) in test [2] is on record as “unable to suppress ferroptosis”.

Take `Cc1noc(-c2cnc(NC3CCCCC3)c([N+](=O)[O-])c2)n1` [TH-4-50-2, N-cyclohexyl-5-(3-methyl-1,2,4-oxadiazol-5-yl)-3-nitropyridin-2-amine]: the “ability” value in test [2] is given as “unable to suppress ferroptosis”.

On to `CCC(CC)Nc1cnc(NC2CCCCC2)c(-c2nc(C)no2)c1` [TH-4-53-1, N^2-cyclohexyl-3-(3-methyl-1,2,4-oxadiazol-5-yl)-N^5-(pentan-3-yl)pyridine-2,5-diamine], for which, in test [2] (setting [6]), the IC50 is 32.7 nM.

For `Cc1noc(-c2cc(NC3CCCC3)cnc2NC2CCCCC2)n1` [TH-4-53-2, N^2-cyclohexyl-N^5-cyclopentyl-3-(3-methyl-1,2,4-oxadiazol-5-yl)pyridine-2,5-diamine], the “potency relative to fer-1, in words” value in test [2] (20 nM RSL3) is on record as “more potent than fer-1; also recorded: the most potent of the analogs tested”. In test [2] (setting [6]), the IC50 worked out at 1.8 nM.

For the compound `Cc1noc(-c2cnc(NC3CCCCC3)c(NC3CCC3)c2)n1` [TH-4-55-1, N^3-cyclobutyl-N^2-cyclohexyl-5-(3-methyl-1,2,4-oxadiazol-5-yl)pyridine-2,3-diamine], the “potency relative to fer-1, in words” value in test [2] (20 nM RSL3) was “more potent than fer-1”. Moreover, the IC50 in test [2] (setting [8]) and in test [2] (setting [6]) was 2.2 nM each time.

In the case of `Cc1noc(-c2cnc(NC3CCCC3)c([N+](=O)[O-])c2)n1` [TH-4-58-2, N-cyclopentyl-5-(3-methyl-1,2,4-oxadiazol-5-yl)-3-nitropyridin-2-amine], in test [2], the “ability” value is on record as “unable to suppress ferroptosis”.

With `Cc1noc(-c2cnc(NC3CCCC3)c(NC3CCC3)c2)n1` [TH-4-62, N^3-cyclobutyl-N^2-cyclopentyl-5-(3-methyl-1,2,4-oxadiazol-5-yl)pyridine-2,3-diamine], the IC50 in test [2] (setting [8]) and in test [2] (setting [6]) was 6.9 nM each time.

`Cc1noc(-c2cnc(NC3CCCC3)c(NC3CCCCC3)c2)n1` [TH-4-66, N^3-cyclohexyl-N^2-cyclopentyl-5-(3-methyl-1,2,4-oxadiazol-5-yl)pyridine-2,3-diamine]: the “potency relative to fer-1, in words” value in test [2] (20 nM RSL3) was “more potent than fer-1”. In addition, the IC50 in test [2] (setting [8]) and in test [2] (setting [6]) was 3.1 nM in each case.

On to `CCC(CC)Nc1cc(-c2nc(C)no2)cnc1NC1CCCC1` [TH-4-68, N^2-cyclopentyl-5-(3-methyl-1,2,4-oxadiazol-5-yl)-N^3-(pentan-3-yl)pyridine-2,3-diamine], for which the IC50 in test [2] (setting [8]) and in test [2] (setting [6]) was 4 nM throughout.

On to `CCOC(=O)c1cnc(NC2CCCCC2)c(N)c1` [YZ1108, ethyl 5-amino-6-(cyclohexylamino)nicotinate], for which the EC50 in test [1] (setting [3]) was 315 nM; in test [1] (setting [4]) it was 639 nM; in test [1] (setting [5]), 1040 nM.

In the case of `CCOC(=O)c1cnc(NC2CCCCC2)c(NCc2ccccc2)c1` [YZ1109, ethyl 5-(benzylamino)-6-(cyclohexylamino)nicotinate], the EC50 in test [1] (setting [3]) amounted to 317 nM; in test [1] (setting [4]) it was 166 nM; in test [1] (setting [5]), 115 nM.

As for `CC(C)(C)OC(=O)c1cnc(NC2CCCCC2)c(N)c1` [YZ1113, tert-butyl 5-amino-6-(cyclohexylamino)nicotinate], the values for the half-maximal effective concentration (EC50) in test [1] (setting [3]), in test [1] (setting [4]) and in test [1] (setting [5]) were 338 nM, 312 nM and 156 nM, respectively.

Take `CC(C)(C)OC(=O)c1cnc(NC23CC4CC(CC(C4)C2)C3)c(N)c1` [YZ1117, tert-butyl 6-(((3s,5s,7s)-adamantan-1-yl)amino)-5-aminonicotinate]: the figures for the EC50 in test [1] (setting [3]), in test [1] (setting [4]) and in test [1] (setting [5]) were 85 nM, 68.4 nM and 39.1 nM, respectively.

As to `CC(C)(C)OC(=O)c1cnc(NC23CC4CC(CC(C4)C2)C3)c(NC2CCCCC2)c1` [YZ1118, tert-butyl 6-(((3s,5s,7s)-adamantan-1-yl)amino)-5-(cyclohexylamino)nicotinate], the EC50 was 40.1 nM in test [1] (setting [4]) and 37.3 nM in test [1] (setting [5]).
